From BindingDB's records for doi:10.1016/s0960-894x(99)00489-8 (Glaxowellcome Medicines Research Centre, 1999)

Tests used:
[1] = molecular target: Human cytomegalovirus protease (assemblin) (Human herpesvirus 5); test: Inhibitory activity against HCMV protease by HPLC assay
[2] = molecular target: Human cytomegalovirus protease (assemblin) (Human herpesvirus 5); test: Inhibitory activity against HCMV protease by SPA assay
[3] = molecular target: Human cytomegalovirus protease (assemblin) (Human herpesvirus 5); test: Inhibitory activity against HCMV protease by HPLC assay; remark: listed apart in the source

| SMILES | IC50 [1] | IC50 [2] | IC50 [3] |
| --- | --- | --- | --- |
| CC(=O)C(C(=O)OC(C)C)C1=C(Cl)C(=O)c2ccccc2C1=O (configuration not stated) [2-(3-Chloro-1,4-dioxo-1,4-dihydro-naphthalen-2-yl)-3-oxo-butyric acid isopropyl ester] |  | 2.68 µM | 9.1 µM |
| CC(=O)C(C(C)=O)C1=C(Cl)C(=O)c2ccccc2C1=O [2-(1-Acetyl-2-oxo-propyl)-3-chloro-[1,4]naphthoquinone] |  | 0.8 µM | 0.72 µM |
| CC(=O)C(C(=O)OCc1ccccc1)C1=C(Cl)C(=O)c2ccccc2C1=O (configuration not stated) [2-(3-Chloro-1,4-dioxo-1,4-dihydro-naphthalen-2-yl)-3-oxo-butyric acid benzyl ester] |  | 0.73 µM | 0.7 µM |
| CCOC(=O)C(C(C)=O)C1=C(Cl)C(=O)c2ccccc2C1=O (configuration not stated) [2-(3-Chloro-1,4-dioxo-1,4-dihydro-naphthalen-2-yl)-3-oxo-butyric acid ethyl ester] |  | 1.45 µM | 4.8 µM |

The next lines start with the values.

| IC50 [1] | IC50 [2] | IC50 [3] | SMILES |
| --- | --- | --- | --- |
| 148 µM |  |  | COC(=O)CC1=C(Cl)C(=O)c2ccccc2C1=O [(3-Chloro-1,4-dioxo-1,4-dihydro-naphthalen-2-yl)-acetic acid methyl ester] |
| 150 µM |  |  | CC1(C)CC(=O)C(C2=C(Cl)C(=O)c3ccccc3C2=O)C(=O)C1 [2-Chloro-3-(4,4-dimethyl-2,6-dioxo-cyclohexyl)-[1,4]naphthoquinone] |
| 110 µM |  |  | O=C1C(OC2CCCCC2)=C(C2CCCCC2)C(=O)c2ccccc21 [2-Cyclohexyl-3-cyclohexyloxy-[1,4]naphthoquinone] |
| 67 µM |  |  | O=C1C(Cl)=C(C2CCCCCC2)C(=O)c2ccccc21 [2-Chloro-3-cycloheptyl-[1,4]naphthoquinone] |
